Results reported in US7962204B2 (priority 2001, dated 2011).

Columns and labels:
[1] = tested on: patients with alpha frequency deficits / theta excess; parameters: species or system human; conditions: in vivo
[2] = tested on: patients with various DSM diagnoses; conditions: human, in vivo
[3] = tested on: behaviorally-diagnosed psychiatric conditions (DSM categories); parameters: species or system human; conditions: in vivo

NC(=O)N1c2ccccc2C=Cc2ccccc21 [carbamazepine]
responded positively: clinical response of patients 1-4 [1]

N[C@@H](Cc1ccc(O)cc1)C(=O)O [L-tyrosine]
successfully treated: clinical response of granddaughter [1]

CC(NC(C)(C)C)C(=O)c1cccc(Cl)c1 (stereo not shown) [Bupropion]
responded positively: clinical response of patients 1-4 [1]

C[C@H](N)Cc1ccccc1 [D-amphetamine]
5 patients: false negatives [2]

O=C1Nc2ccc(Cl)cc2C(c2ccccc2Cl)=NC1O (stereo not shown) [lorazepam]
only slightly responsive: response of chronic insomnia of patient 4 [1]

COC(=O)C(c1ccccc1)C1CCCCN1 (stereo not shown) [SR METHYLPHENIDATE]
N: use code of agent in 294.8 Amnestic Disorder [3] | use code of agent in 296.89 Bipolar II Disorder [3] | use code of agent in 312.34 Intermittent Explosive Disorder [3] | use code of agent in Dementia of the Alzheimer's Type [3] | use in 299.80 Pervasive Developmental Disorder NOS [3] | use in 300.00 Anxiety Disorder NOS [3] | use in 300.02 Generalized Anxiety Disorder [3] | use in 300.22 Agoraphobia Without History of Panic Disorder [3] | use in 300.23 Social Phobia [3] | use in 300.29 Specific Phobia [3] | use in 300.3 Obsessive-Compulsive Disorder [3] | use in 307.22 Chronic Motor or Vocal Tic Disorder [3] | use in 307.9 Communication Disorder NOS [3] | use in 309.21 Separation Anxiety Disorder [3] | use in 309.81 Posttraumatic Stress Disorder [3] | use in Panic Disorder [3] | use of agent in DSM category (C/N code) [3] | use of the agent in the diagnostic category (C = common use; N = novel use from rEEG features) [3]

NC(=O)CC[C@H](N)C(=O)O [GLUTAMINE, reference compound]
N: agent found effective in 299.00 Autistic Disorder [3] | agent found effective in 300.00 Anxiety Disorder NOS [3] | agent found effective in 300.02 Generalized Anxiety Disorder [3] | agent found effective in 300.22 Agoraphobia Without History of Panic Disorder [3] | agent found effective in 300.23 Social Phobia [3] | agent found effective in 300.29 Specific Phobia [3] | agent found effective in 300.3 Obsessive-Compulsive Disorder [3] | agent found effective in 309.81 Posttraumatic Stress Disorder [3] | agent found effective in Panic Disorder [3] | use in Dementia of the Alzheimer's Type [3]
successfully treated: clinical response of granddaughter [1]
